Measurements: patent US20170175081A1, “Methods of Obtaining Islet Cells” (The University Court of the University of Aberdeen, priority 2014, published 2017)

What was measured:
[1] = test system: islet enriched pancreatic cells; test: Ad-KLF4 with and without Rho-kinase inhibitor Y27632, gene expression; assay type: cell-based, human; conditions: Y27632 20 uM; up to 10 days post infection
Protocol: FIG. 11. […] A one-way ANOVA was performed with Dunnett post hoc test comparing treatment groups. […] B: Samples were fixed and permeabilised at day 6 for E-cadherin and cleaved caspase-3.
Total RNA was extracted using TRIzol® and treated with DNaseI (both Life Technologies) followed by cDNA synthesis using 1 μg of RNA per sample. qRT-PCR mixtures were prepared using SensiMix II probe kit (Bioline, London, UK) and TaqMan gene expression assays (Applied Biosystems, Paisley, UK) as per manufacturer's instructions. cDNA was amplified on Roche LightCycler 480® for 50 cycles. Samples were run in triplicate and normalised to glyceraldehyde 3-phosphate dehydrogenase (GAPDH) and/or 60S ribosomal protein L13a (RPL13a). Data was analysed using the 2^−ΔΔCT method (Brodsky et al., 1999). Statistical analysis was performed using GraphPad Prism software and the Student t test or one-way/two-way ANOVA, followed by the Dunnett post hoc test, were used as appropriate.
We next hypothesised that adjusting the cell culture environment to promote survival of newly formed epithelial cells would enhance redifferentiation.

[2] = test system: reprogrammed human exocrine pancreatic cells; test: RT-qPCR of cells reprogrammed (siARX) with or without zinc; assay type: cell-based; conditions: ZnCl2 10 μM; partly attributed to increased PAX4 mRNA
Protocol: FIG. 18. RT-qPCR analysis of the three main endocrine hormones insulin (INS), glucagon (GCG) and somatostatin (SST) and the transcription factors PDX1, PAX4, MAFA, NEUROD, NGN3 and NKX6.1 in untreated (N/A) or cells reprogrammed (siARX) in the absence or presence of ZnCl2 (10 μM). Expression was normalised to glyceraldehyde 3-phosphate dehydrogenase. Data are representative of triplicate experiments and represented as mean+/−standard error of the mean.
Human exocrine fractions were thawed and plated on tissue culture 9 cm^2 dishes (Greiner, Stonehouse, UK) and cultured for two days in RPMI 1640 (Gibco, Life Technologies) supplemented with 10% foetal bovine serum (FBS), 10 mM HEPES, 1 mM sodium pyruvate (all from Gibco) and 75 μM β-mercaptoethanol (Sigma Aldrich). After 48 h, the cells were incubated for another 72 h in serum free medium (SFM) prepared with RPMI 1640, insulin-transferrin-selenium (Gibco) and 1% bovine serum albumin (Sigma), supplemented with 10 μM SB431542, 2 μM Y27632, 1 μM 5-Aza-2′deoxycytidine and 10 mM sodium butyrate (all from Sigma). On the next day the cells were incubated for 4 h with the adenoviruses encoding pancreatic transcription factors PDX1, MAFA, NGN3 and PAX4. On the following day the medium was changed for SFM supplemented with 1 nM betacellulin (R&D systems, Abingdon, UK), 10 nM exendin-4 and 10 mM nicotinamide (both from Sigma). […]

[3] = test system: reprogrammed human exocrine pancreatic cells; test: C-peptide ELISA of cell extracts, reprogrammed (siARX) with or without ZnCl2; assay type: cell-based; conditions: ZnCl2 10 μM; p<0.01 relative to siARX
Protocol: FIG. 19. C-peptide ELISA measurements of cell extracts from untreated cells (N/A) or cells reprogrammed (siARX) in the absence or presence of ZnCl2 (10 μM). C-peptide levels were expressed level to protein content and represent […] (n=3). ***p<0.001 relative to NA and **p<0.01 relative to siARX.
Human exocrine fractions were thawed and plated on tissue culture 9 cm^2 dishes (Greiner, Stonehouse, UK) and cultured for two days in RPMI 1640 (Gibco, Life Technologies) supplemented with 10% foetal bovine serum (FBS), 10 mM HEPES, 1 mM sodium pyruvate (all from Gibco) and 75 μM β-mercaptoethanol (Sigma Aldrich). After 48 h, the cells were incubated for another 72 h in serum free medium (SFM) prepared with RPMI 1640, insulin-transferrin-selenium (Gibco) and 1% bovine serum albumin (Sigma), supplemented with 10 μM SB431542, 2 μM Y27632, 1 μM 5-Aza-2′deoxycytidine and 10 mM sodium butyrate (all from Sigma). On the next day the cells were incubated for 4 h with the adenoviruses encoding pancreatic transcription factors PDX1, MAFA, NGN3 and PAX4. On the following day the medium was changed for SFM supplemented with 1 nM betacellulin (R&D systems, Abingdon, UK), 10 nM exendin-4 and 10 mM nicotinamide (both from Sigma). The medium was changed every two days for another 6 days before harvesting. […]

**Q.** For `C[C@@H](N)[C@H]1CC[C@H](C(=O)Nc2ccncc2)CC1` [Y27632], which “gene expression, Ad-KLF4 with vs without Y27632” value [1] is on record?
**A.** The value was “no significant difference”.

**Q.** What does the source list for `[Cl-].[Cl-].[Zn+2]` [ZnCl2]?
**A.** insulin gene expression [2]: significant effect; insulin (C-peptide) protein content [3]: stimulatory effect
